Consider one compound from patent US6958311B2, “Flowering regulators” (Riken, priority 2000, dated 2005).

The subject of the experiment is American Blue (Evolvulus pilosus). Nature of the experiment: Flowering of American Blue pots in greenhouse after spraying with brassinazole solution. The settings on record: sprayed 1000 g/ha on days 0, 7, 14 and 30. Format: in vivo. An excerpt: In the figure, □ indicates the result of a group treated with the flowering regulator of the present invention (brassinazole), and ∇ indicates the result of an untreated group. The vertical axis indicates a rate of flowering, and the horizontal axis indicates the number of days after the treatment. The arrows indicate the days when the flowering regulator is sprayed. Forty four pots of American Blue (Evolvulus pilosus) of about one month after cutting, which were purchased as-commercial products, were grown in a greenhouse at 22° C. under a natural light condition during the day and an artificial light condition during the night. These pots were divided into two groups, and 22 plants were sprayed with brassinazole [4-(4-chlorophenyl)-2-phenyl-3-(1,2,4-triazoyl)butan-2-ol] solution in an amount of 1000 g/ha on days 0, 7, 14 and 30. The other group (22 plants) was grown under the same conditions except for the treatment with the agent. As the brassinazole solution, 0.5 mg/ml aqueous solution containing 0.1% dimethyl sulfoxide and 0.1% Tween 20 was prepared, and diluted to a 1/10 concentration with water upon use and sprayed by using a spray in the predetermined amount.

Take `CC(O)(c1ccccc1)C(Cc1ccc(Cl)cc1)n1cncn1` (centres unmarked) [brassinazole, 4-(4-chlorophenyl)-2-phenyl-3-(1,2,4-triazoyl)butan-2-ol]: the flowering accelerating effect result (compared with the untreated plot) was “clearly demonstrated”. Also, the “flowering (rate of flowering)” value (greenhouse 22° C., 22 plants, untreated plot: flowering on only one plant on day 35) is recorded as “flowering occurred after flower-bud formation”.
